Legend:
ENaC = molecular target: T1, ENaC (Canis lupus familiaris, UniProt A0A8I3MKE6+A0A8I3Q679+Q95165); test: Inhibition of short-circuit current (ISC) and reversibility, bronchial epithelial monolayers in Ussing chamber, canine cells; assay type: cell-based; settings: canine bronchial epithelial cells (CBE); mean ± SD (n)
T1 sequence (A0A8I3Q679 1-649): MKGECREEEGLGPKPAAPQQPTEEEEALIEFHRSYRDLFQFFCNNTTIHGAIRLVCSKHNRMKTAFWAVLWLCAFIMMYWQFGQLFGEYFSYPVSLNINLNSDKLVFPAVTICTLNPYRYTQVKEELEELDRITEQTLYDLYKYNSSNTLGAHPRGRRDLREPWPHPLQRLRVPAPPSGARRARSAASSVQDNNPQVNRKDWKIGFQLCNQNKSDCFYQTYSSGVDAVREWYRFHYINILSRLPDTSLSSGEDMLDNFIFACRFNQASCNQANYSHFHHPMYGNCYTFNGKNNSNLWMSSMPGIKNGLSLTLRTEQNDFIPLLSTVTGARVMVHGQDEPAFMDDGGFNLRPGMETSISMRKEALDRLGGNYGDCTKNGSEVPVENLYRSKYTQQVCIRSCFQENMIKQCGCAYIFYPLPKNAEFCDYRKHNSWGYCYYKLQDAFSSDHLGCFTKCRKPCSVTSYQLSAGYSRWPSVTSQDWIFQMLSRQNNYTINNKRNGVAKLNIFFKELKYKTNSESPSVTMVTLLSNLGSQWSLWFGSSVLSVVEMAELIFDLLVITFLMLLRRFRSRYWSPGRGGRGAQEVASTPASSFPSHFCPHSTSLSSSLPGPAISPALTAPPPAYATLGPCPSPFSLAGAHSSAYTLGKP
T1 sequence (Q95165 1-641): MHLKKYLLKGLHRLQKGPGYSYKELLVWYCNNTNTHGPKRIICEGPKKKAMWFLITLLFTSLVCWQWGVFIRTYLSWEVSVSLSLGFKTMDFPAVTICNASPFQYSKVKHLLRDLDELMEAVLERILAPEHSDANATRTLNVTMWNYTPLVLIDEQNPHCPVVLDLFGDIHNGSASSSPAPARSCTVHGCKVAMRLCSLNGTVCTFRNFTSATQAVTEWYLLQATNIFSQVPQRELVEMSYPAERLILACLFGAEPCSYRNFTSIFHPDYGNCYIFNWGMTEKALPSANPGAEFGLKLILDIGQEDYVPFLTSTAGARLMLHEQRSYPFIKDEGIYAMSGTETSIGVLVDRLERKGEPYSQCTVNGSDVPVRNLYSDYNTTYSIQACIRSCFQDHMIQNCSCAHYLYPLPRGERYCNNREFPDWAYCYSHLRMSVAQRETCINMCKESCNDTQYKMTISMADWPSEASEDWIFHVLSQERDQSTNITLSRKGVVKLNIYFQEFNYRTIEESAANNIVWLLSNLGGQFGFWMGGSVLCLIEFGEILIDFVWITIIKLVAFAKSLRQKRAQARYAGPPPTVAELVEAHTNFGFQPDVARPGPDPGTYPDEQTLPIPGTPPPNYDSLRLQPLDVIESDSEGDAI
T1 sequence (A0A8I3MKE6 1-646): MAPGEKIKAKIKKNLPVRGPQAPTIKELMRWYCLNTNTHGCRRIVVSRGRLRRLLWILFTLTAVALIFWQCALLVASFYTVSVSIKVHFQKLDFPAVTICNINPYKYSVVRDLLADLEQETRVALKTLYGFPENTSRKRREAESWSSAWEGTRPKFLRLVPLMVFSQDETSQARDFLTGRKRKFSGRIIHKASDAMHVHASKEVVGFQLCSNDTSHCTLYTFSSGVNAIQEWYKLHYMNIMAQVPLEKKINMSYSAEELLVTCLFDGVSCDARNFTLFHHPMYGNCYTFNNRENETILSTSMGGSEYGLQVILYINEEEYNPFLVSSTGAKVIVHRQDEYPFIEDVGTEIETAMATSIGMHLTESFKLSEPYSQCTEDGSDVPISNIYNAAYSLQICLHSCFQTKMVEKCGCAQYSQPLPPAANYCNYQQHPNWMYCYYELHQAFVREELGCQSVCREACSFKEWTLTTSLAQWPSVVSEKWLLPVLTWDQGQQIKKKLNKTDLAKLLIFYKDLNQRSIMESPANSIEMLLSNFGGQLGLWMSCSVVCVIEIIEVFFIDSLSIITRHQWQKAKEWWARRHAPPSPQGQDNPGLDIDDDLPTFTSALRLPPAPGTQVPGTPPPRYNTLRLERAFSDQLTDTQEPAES
Method: One assay used to assess mechanism of action and/or potency of the compounds of the present invention involves the determination of luminal drug inhibition of airway epithelial sodium currents measured under short circuit current (ISC) using airway epithelial monolayers mounted in Ussing chambers. Cells are obtained from freshly excised human, canine, sheep or rodent airways.
Inhibition of transcellular sodium movement through ENaC was measured using polarized bronchial epithelial cell monolayers mounted in a modified Ussing chamber. Primary cultures of canine or human bronchial epithelial cells grown using an air-liquid interface were tested under voltage clamp conditions. The short-circuit current (ISC) was measured as an index of transepithelial sodium transport to assess potency.
Recovery of short circuit current (ISC) from maximal block was used as an indirect measurement of drug off-rate.

Muc5B = Muc5B (Homo sapiens, UniProt Q9HC84); settings: in vitro; cited from earlier work

| SMILES | IC50 (ENaC) | concentration required to fully reduce Muc5B (Muc5B) |
| --- | --- | --- |
| N=C(NCCCCc1ccc(OCCN(CCCc2ccccc2)C[C@H](O)[C@@H](O)[C@H](O)[C@H](O)CO)cc1)NC(=O)c1nc(Cl)c(N)nc1N [Compound 12, 3,5-diamino-6-chloro-N—(N-(4-(4-(2-(((2S,3R,4R,5R)-2,3,4,5,6-pentahydroxyhexyl)(3-phenylpropyl)amino)ethoxy)phenyl)butyl)carbamimidoyl)pyrazine-2-carboxamide] | 6.6 ± 7 nM |  |
| N=C(NCCCCc1ccc(OCCN(CCCc2ccc3ccccc3c2)C[C@H](O)[C@@H](O)[C@H](O)[C@H](O)CO)cc1)NC(=O)c1nc(Cl)c(N)nc1N [Compound 17, 3,5-diamino-6-chloro-N—(N-(4-(4-(2-((3-(naphthalen-2-yl)propyl)((2S,3R,4R,5R)-2,3,4,5,6-pentahydroxyhexyl)amino)ethoxy)phenyl)butyl)carbamimidoyl)pyrazine-2-carboxamide] | 5.6 ± 9 nM |  |
| N=C(NCCCCc1ccc(OCCN(CCCc2cccc3ccccc23)C[C@H](O)[C@@H](O)[C@H](O)[C@H](O)CO)cc1)NC(=O)c1nc(Cl)c(N)nc1N [Compound 27, 3,5-diamino-6-chloro-N—(N-(4-(4-(2-((3-(naphthalen-1-yl)propyl)((2S,3R,4R,5R)-2,3,4,5,6-pentahydroxyhexyl)amino)ethoxy)phenyl)butyl)carbamimidoyl)pyrazine-2-carboxamide] | 5.9 ± 4.8 nM |  |
| N=C(NCCCCc1ccc(CCCN(CCCc2ccccc2)C[C@H](O)[C@@H](O)[C@H](O)[C@H](O)CO)cc1)NC(=O)c1nc(Cl)c(N)nc1N [Compound 40, 3,5-diamino-6-chloro-N—(N-(4-(4-(3-(((2S,3R,4R,5R)-2,3,4,5,6-pentahydroxyhexyl)(3-phenylpropyl)amino)propyl)phenyl)butyl)carbamimidoyl)pyrazine-2-carboxamide] | 11.8 ± 8.2 nM |  |
| CC(=O)N[C@@H](CS)C(=O)O [NAC, N-acetyl cysteine] |  | 200 mM |

— patent US10233158B2, “Arylalkyl- and aryloxyalkyl-substituted epithelial sodium channel blocking compounds” (Parion Sciences, Inc., priority 2013, dated 2019)
